The nature of this series: Drug solubility in culture medium (light scattering, Nepheloskan). The note with it: complete culture medium with serum; medium with 10% bovine serum and 10% calf serum, 37°C; read-out: Solubility in the culture medium system. It counts as physicochemical. Here is the method: The final concentration of DMSO in the 0–100 μM solutions was 0.5% and at the 300 μM solution DMSO was 1.5%. The final dosing solutions were prepared in Eagles Minimum Essential Medium. All experiments that used DMSO as the drug solvent also included a DMSO negative control. Negative controls of medium plus DMSO (0.5%) were included with and without cells. A positive control for complete cell death received 1 mM digitonin in medium on the day of dosing.
The samples were evaluated using light scattering with a Nepheloskan instrument. A reading that was greater than or equal to 3 times background was considered the limit of solubility.

On to `COc1cccc(/C=N/N(C(=O)C(F)(F)F)c2ccc(C)cc2C)c1` [J-147, (E)-N-(2,4-Dimethylphenyl)-2,2,2-trifluoro-N′-(3-methoxybenzylidene) acetohydrazide], for which the solubility (in general, how much of the substance goes into solution per volume) was ≥ 300 µM.

Source of the values: paper PMC4215638, “J-147 a Novel Hydrazide Lead Compound to Treat Neurodegeneration: CeeTox™ Safety and Genotoxicity Analysis” (Journal of neurology & neurophysiology, 2013).
